Assay results from patent US7718360B2, “Composition (RCUD) for protecting and/or repairing DNA from oxidative damages and a method thereof” (Council of Scientific & Industrial Research, priority 2003, dated 2010).
Numbered stars: 1 amine (or outer) side, 2 acyl side, 3 side chain; on linkers, the order of the positions; unused ones are H or OH. Bridge positions count the residues as written; N and C are the ends. Square brackets hold non-standard residues; d marks the D form. Peptide text beside a SMILES is read from it. I, II: the chains in the order shown. Actinocin(9to1) = Cc1c2oc3c(C)ccc(C(=O)[*:1])c3nc-2c(C(=O)[*:2])c(N)c1=O; NMeV = CN[C@H](C(=O)O)C(C)C; Sar = CNCC(=O)O

Legend:
Type in all cases: cell-based
[1] = test system: polymorphonuclear leucocytes; assay: DNA damage induced by manganese dioxide (MnO2) and protection by redistilled cow's urine distillate; settings: Table 4; MnO2 20 μl alone (positive control)
Protocol: (§1) To 5 ml of whole blood 15 ml of solution A is added, mixed well and kept between 2 and 4° C. for 30 minutes. The mixture was centrifuged at 800×g for 10 minutes. The supernatant is discarded, the pellet was washed with balanced salt solution and washing is discarded after centrifugation at 800×g for 10 minutes. This step was done twice. The pellet comprises of peripheral polymorphonuclear leukocytes (PMNs) which are suspended in predetermined amount of solution B.
(§2) The volume in each tube was made up to 2 ml by adding BSS solution. The mixture is incubated at 37° C. for 1 hr in 5% CO2 incubator with 95% humidity. After incubation, 5 ml of ice cold 0.9% NaCl was added in each tube, centrifuged at 800 g for 10 minutes and the supernatant is discarded. To the pellet in each tube 1.5 ml of solution B was added. The tubes (control and three experimental) are mixed thoroughly and the mixture was equally distributed in the volume of 0.2 ml in 3 tubes designated as B, P and T, then 200 μl of solution C was added. The three tubes B, P & T, were kept in cold (0° C.) for 10 minutes after mixing well in order to lyse the cells. To tube T 400 μl of solution E was added. Thereafter, 200 μl of solution D was added to all the tubes B, P and T. The tubes were kept at 0° C. for 30 minutes. Thereafter, contents of the B tube was sonicated for 30 second three times. B, P and T were further incubated at 20° C. for 1 hr. To B and P tubes 400 μl of solution E was added and the tubes were incubated at 0° C. for 10 minutes. 1.5 ml of solution F are added to all the tubes, homogenized on a vortex shaker and subjected to fluorescence spectrophotometric analyses within 15 minutes with 520 nm excitation and at 590 nm emission. The percentage of double stranded DNA remaining was determined using the following formula. [Krishnamurthi et al. (2003) & Bimboim & Jevcak (1981)].
(§3) [formula] • Where P, B and T are the fluorescence emissions at 590 nm.
(§4) One ml of PMNs suspended in solution B containing around 1×10^6 cells were taken in four tubes A, B, C and D. To tube B, 60 μl of redistilled cow urine distillate (RCUD) was added and incubated at 37° C. for 10 minutes.
(§5) To tube A only 60 μl of RCUD was added; the volume was made up with BSS. The mixture was incubated at 37° C. for 1 hr in 5% CO2 incubator with 95% humidity. The rest of the protocol was followed as described under C and D.

[2] = test system: polymorphonuclear leucocytes; assay: DNA damage induced by actinomycin D and protection by redistilled cow's urine distillate; settings: Table 2; Actinomycin D alone (positive control)
Protocol: as §1, §2, §3, §4, §5

[3] = test system: polymorphonuclear leucocytes; assay: DNA damage induced by hydrogen peroxide (H2O2) and protection by redistilled cow's urine distillate
Protocol: as §1
as §2, with “formula.” for “formula. [Krishnamurthi et al. (2003) & Bimboim & Jevcak (1981)].”
as §3, §4, §5

[4] = Table 3, H2O2 alone (positive control)
[5] = Table 5, H2O2 10 μl alone (positive control)
[6] = Table 6, H2O2 10 μl alone (positive control)

[O]=[Mn]=[O] [Manganese dioxide (MnO2), Manganese dioxide]
Mean, percentage of double stranded DNA remaining [1]: 21 percentage | Set I, percentage of double stranded DNA remaining [1]: 22 percentage | Set II, percentage of double stranded DNA remaining [1]: 30 percentage | Set III, percentage of double stranded DNA remaining [1]: 22 percentage | Set IV, percentage of double stranded DNA remaining [1]: 15 percentage | Set V, percentage of double stranded DNA remaining [1]: 16 percentage

Cc1c2oc3c(C)ccc(C(=O)N[C@@H]4C(=O)N[C@H](C(C)C)C(=O)N5CCC[C@H]5C(=O)N(C)CC(=O)N(C)[C@@H](C(C)C)C(=O)O[C@@H]4C)c3nc-2c(C(=O)N[C@@H]2C(=O)N[C@H](C(C)C)C(=O)N3CCC[C@H]3C(=O)N(C)CC(=O)N(C)[C@@H](C(C)C)C(=O)O[C@@H]2C)c(N)c1=O [Actinomycin D] (I: T[dV]P[Sar][NMeV] / II: T[dV]P[Sar][NMeV]; ester I:1-I:C, II:1-II:C; linker I:N-II:N via Actinocin(9to1))
Mean, percentage of double stranded DNA remaining [2]: 38 percentage | Set I, percentage of double stranded DNA remaining [2]: 40 percentage | Set II, percentage of double stranded DNA remaining [2]: 38 percentage | Set III, percentage of double stranded DNA remaining [2]: 44 percentage | Set IV, percentage of double stranded DNA remaining [2]: 28 percentage | Set V, percentage of double stranded DNA remaining [2]: 39 percentage

OO [Hydrogen Peroxide (H2O2), Hydrogen Peroxide]
Mean, percentage of double stranded DNA remaining [3, 4]: 31 percentage | Set I, percentage of double stranded DNA remaining [3, 4]: 20 percentage | Set II, percentage of double stranded DNA remaining [3, 4]: 29 percentage | Set III, percentage of double stranded DNA remaining [3, 4]: 24 percentage | Set IV, percentage of double stranded DNA remaining [3, 4]: 43 percentage | Set V, percentage of double stranded DNA remaining [3, 4]: 38 percentage | Mean, percentage of double stranded DNA remaining [3, 5]: 26 percentage | Set I, percentage of double stranded DNA remaining [3, 5]: 24 percentage | Set II, percentage of double stranded DNA remaining [3, 5]: 24 percentage | Set III, percentage of double stranded DNA remaining [3, 5]: 24 percentage | Set IV, percentage of double stranded DNA remaining [3, 5]: 33 percentage | Set V, percentage of double stranded DNA remaining [3, 5]: 24 percentage | Mean, percentage of double stranded DNA remaining [3, 6]: 26 percentage | Set I, percentage of double stranded DNA remaining [3, 6]: 24 percentage | Set II, percentage of double stranded DNA remaining [3, 6]: 24 percentage | Set III, percentage of double stranded DNA remaining [3, 6]: 24 percentage | Set IV, percentage of double stranded DNA remaining [3, 6]: 33 percentage | Set V, percentage of double stranded DNA remaining [3, 6]: 24 percentage
